From patent publication US5672707A (priority 1991, dated 1997)
“Also recorded” adds a separate entry of the source.

Assays:
mice [1] = test: Psychotropic activity test: motor activity; format: in vivo; settings: intraperitoneally, dose 1/20 of LD
mice [2] = test: Step-down test, scopolamine induced amnesia; format: in vivo
Protocol: (§1) Psychoneurotropic activity of the declared compounds and their influence on learning and memory were observed using unbred male (18-20 g) mice and 180-200 g) rats, held at standard conditions (room temperature 21°-22° C., 12-hours lighting schedule, food and water ad libitum).

rats = test: Passive avoidance test in normal rats, 50% acquisition; format: in vivo; settings: for change in vivo at 0.1 mg/kg: Rattus norvegicus, ip, 20 min, read-out: Increase of the number of correct trails (% to control). Passive avoidance test (rats); for change in vivo at 0.1 mg/kg / Increase of the number of correct trails (% to control). Passive avoidance test (rats): rats, 0.1 mg/kg i.p. 20 min before training, piracetam 250 mg/kg 60 min before training; for Performance of normal rats in passive avoidance test / Improving learning and memory compared with amiridine and piracetam: normal rats; for Improving learning and memory compared with amiridine and piracetam: passive avoidance test
Protocol: as §1
The influence of drugs on reflex conditioning in rats was studied by the passive avoidance test in conditions of 50% acquisition. The effect of the compound was estimated by the increase of the relative number of learned animals with respect to that of control group. […] The other reference drug--noothropic agent piracetam--was given in the dose 250 mg/kg 60 min before training. Amnestic syndrome was stimulated by 20 days application of Sc at the daily dose of 1 mg/kg intraperitoneally. […] The passive avoidance test was performed within 24 hours after the last application of test preparations.

[3] = target: T1, Acetylcholinesterase, enzyme from human erythrocytes (Homo sapiens, UniProt P22303); test: Acetylcholinesterase inhibition, spectrophotometric technique of Ellman; format: biochemical; settings: for IC50: Acetylcholinesterase inhibition IC50 (M)
T1 construct: on the enzyme from human erythrocytes; from tissue; host or cells: human erythrocytes
Protocol: Acetylcholinesterase inhibition under the action of preparations was assessed by the spectrophotometric technique of Ellman on the enzyme from human erythrocytes.

K channels = test: Ionic permeabilities of excitable membranes, voltage clamp in the Ranvier node; format: cell-based, frog
in vivo = settings: intraperitoneal injection, Table 5; for LD50: in vivo, ip, read-out: LD50 (mg/kg) by Kerber
Protocol: as §1
Acute toxicity was studied by the method of Kerber with intra peritoneal drug injection.

mice [4] = test: Psychotropic activity test: arecoline induced hyperkynesis; format: in vivo; settings: intraperitoneally, dose 1/20 of LD
rat adipocytes [5] = test: Lipid content in incubation medium after incubation of adipocytes; format: cell-based; settings: incubation medium; Table 12
Protocol: (§2) Lipid regulative activity of the declared compounds--derivatives of 9-amino acridine--were evaluated in vitro[…] using rat adipocytes. Adipocytes were separated from adipose tissue of testis appendages of adult male rats. Lipid composition analysis was performed by the method of thin-layer chromatography.
(§3) Quantitative analysis of phospholipids (PL), mono- and diacylglycerides (MDG), triacylglycerides (TG), free fatty acids (FFA), free cholesterol (FCL), and methyl esters of fatty acids (MEFA) was performed by the method of spectrophotometry.

rat adipocytes [6] = test: Lipid composition of adipocytes after incubation with compounds; format: cell-based; settings: for FFA/TG in adipocytes / PL/CL in adipocytes / PL/TG in adipocytes: cells, Table 11; for FFAc/FFAm / PLc/PLm: distribution between cells and incubation medium, Table 13
Protocol: as §2, §3

[7] = enzyme from human erythrocytes, Table 5

T1 sequence (P22303-2 with tags, fused parts or gaps limits assumed): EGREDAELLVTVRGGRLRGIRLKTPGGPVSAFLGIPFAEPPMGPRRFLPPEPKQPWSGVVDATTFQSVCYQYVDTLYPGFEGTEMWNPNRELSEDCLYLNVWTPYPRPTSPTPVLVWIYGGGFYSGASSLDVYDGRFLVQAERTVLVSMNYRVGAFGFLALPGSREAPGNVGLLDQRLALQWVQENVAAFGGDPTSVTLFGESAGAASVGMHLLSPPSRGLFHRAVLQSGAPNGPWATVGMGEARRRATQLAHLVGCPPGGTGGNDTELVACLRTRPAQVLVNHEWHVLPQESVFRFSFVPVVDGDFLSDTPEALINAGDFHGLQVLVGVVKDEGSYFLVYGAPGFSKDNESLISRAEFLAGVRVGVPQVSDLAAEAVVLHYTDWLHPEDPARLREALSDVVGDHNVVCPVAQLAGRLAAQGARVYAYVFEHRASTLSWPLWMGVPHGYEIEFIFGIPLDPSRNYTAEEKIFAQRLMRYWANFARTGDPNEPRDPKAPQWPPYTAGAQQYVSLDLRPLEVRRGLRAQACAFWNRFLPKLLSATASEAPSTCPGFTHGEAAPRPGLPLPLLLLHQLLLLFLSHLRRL

| Structure (SMILES) | Motor activity increment (% to control) (mice [1]) | Antiamnestic activity in Step-down test (% of mice with latency > cut off) (mice [2]) | change in vivo at 0.1 mg/kg (rats) [%] | LD50 (in vivo) [mg/kg] | Increase of duration of arecoline induced hyperkynesis (% to control) (mice [4]) | IC50 [3, 7] [M] | other results |
| --- | --- | --- | --- | --- | --- | --- | --- |
| CC1(C)CC(=O)c2c(nc3ccccc3c2NCc2ccccc2)C1 [Vb] | 80 % to control | 0 % of mice | 25 | 735 ± 21.8 | 15 % to control | – | AChE inhibition IC (M) ([3]; Table 6): no effect; Acetylcholinesterase inhibition IC50 (M) [3, 7]: no effect; The shift of activation region of K channels: substance lowest concentrations in M producing measureable shift of 1-2 mV (K channels): no effect |
| CC1(C)C=Cc2c(nc3ccccc3c2N)C1 [VIIb] | 41 % to control | 25 % of mice | 40 | 37.5 ± 0.9 | 25 % to control | 7.5e-08 | Antiamnestic activity in Step-down test (mice [2]): pronounced antiatonestic activity, comparable with that of amiridine and tacrine; Performance of normal rats in passive avoidance test (rats): statistically significantly improved performance of normal rats; Block of K-channels IC (M) (K channels; Ranvier node of the frog, voltage clamp): no effect |
| CC1(C)C=Cc2c(nc3ccccc3c2NCc2ccccc2)C1 [VIIl] | 10 % to control | – | – | – | 15 % to control | – | Increase of the number of correct trails (% to control). Passive avoidance test (rats) (rats): 40 % to control; FFA/TG in incubation medium (rat adipocytes [5]): 1.00; PL/CL in incubation medium (rat adipocytes [5]): 0.91; PL/TG in incubation medium (rat adipocytes [5]): 0.77; LD50 (mg/kg) by Kerber (in vivo): 116.7 ± 10.9 mg/kg; FFA/TG in adipocytes (rat adipocytes [6]): 1.00; PL/CL in adipocytes (rat adipocytes [6]): 0.75; PL/TG in adipocytes (rat adipocytes [6]): 0.78; FFAc/FFAm (rat adipocytes [6]): 0.96; PLc/PLm (rat adipocytes [6]): 0.97 |
| CC1(C)C=Cc2c(nc3ccccc3c2NCc2ccccc2)C1 [VIIi] | 20 % to control | 25 % of mice | – | – | 15 % to control | – | Antiamnestic activity in Step-down test (mice [2]): pronounced antiatonestic activity, comparable with that of amiridine and tacrine; Performance of normal rats in passive avoidance test (rats): statistically significantly improved performance of normal rats; Increase of the number of correct trails (% to control). Passive avoidance test (rats) (rats): 35 % to control; LD50 (mg/kg) by Kerber (in vivo): 500 mg/kg |
| CC1(C)C=Cc2c(nc3ccccc3c2NCc2ccccc2)C1 [VIIj] | – | – | – | – | – | – | FFA/TG in incubation medium (rat adipocytes [5]): 1.07; PL/CL in incubation medium (rat adipocytes [5]): 0.89; PL/TG in incubation medium (rat adipocytes [5]): 0.81; FFA/TG in adipocytes (rat adipocytes [6]): 1.00; PL/CL in adipocytes (rat adipocytes [6]): 0.83; PL/TG in adipocytes (rat adipocytes [6]): 0.86; FFAc/FFAm (rat adipocytes [6]): 0.93; PLc/PLm (rat adipocytes [6]): 1.08 |
| CC(C)Nc1c2c(nc3ccccc13)CC(C)(C)CC2=O [Vn] | 76 % to control | – | 0 | 70.2 ± 7.3 | 0 % to control | 6e-06 | – |
| Cc1cccc2c(N)c3c(nc12)CC(C)(C)CC3=O [IVl] | 57 % to control | – | 0 | 617 ± 23.7 | 0 % to control | 6.3e-07 | – |
| CNc1c2c(nc3ccccc13)CC(C)(C)CC2=O [Vh] | 40 % to control | – | 0 | 65.8 ± 4.8 | 20 % to control | 4e-07 | – |
| Cc1ccc2nc3c(c(N)c2c1)C(=O)CC(C)(C)C3 [IVj] | 0 % to control | – | 0 | 63.6 ± 8.7 | 30 % to control | 3e-05 | – |
| CC1(C)CC(=O)c2c(nc3ccc(Br)cc3c2N)C1 [IVd] | 15 % to control | – | 0 | > 500 | 20 % to control | 5e-05 | – |
| CCCCNc1c2c(nc3ccccc13)CC(C)(C)CC2=O [Vaa] | 26 % to control | 25 % of mice | – | – | 25 % to control | – | Antiamnestic activity in Step-down test (mice [2]): pronounced antiatonestic activity, comparable with that of amiridine and tacrine; Increase of the number of correct trails (% to control). Passive avoidance test (rats) (rats): 15 % to control; FFA/TG in incubation medium (rat adipocytes [5]): 0.92; PL/CL in incubation medium (rat adipocytes [5]): 0.71; PL/TG in incubation medium (rat adipocytes [5]): 0.55; LD50 (mg/kg) by Kerber (in vivo): 650.0 ± 11.3 mg/kg; FFA/TG in adipocytes (rat adipocytes [6]): 0.94; PL/CL in adipocytes (rat adipocytes [6]): 0.63; PL/TG in adipocytes (rat adipocytes [6]): 0.58; FFAc/FFAm (rat adipocytes [6]): 1.01; PLc/PLm (rat adipocytes [6]): 1.04 |
| CC(C)CNc1c2c(nc3ccccc13)CC(C)(C)CC2=O [Vq] | 75 % to control | – | 0 | 158 ± 21.9 | 0 % to control | 2e-06 | – |
| CC1(C)Cc2nc3ccccc3c(NCc3ccccc3)c2C(O)C1 (centres unmarked) [VIe, 9-benzylamino-3,3-dimethyl-1,2,3,4-tetrahydroacridine-1-ol] | 64 % to control | – | 0 | 50 ± 8.6 | 15 % to control | 1.3e-06 | – |
| CC1(C)Cc2nc3ccccc3c(N)c2C(O)C1 (centres unmarked) [VIb] | 40 % to control | 0 % of mice | 20 | 63.3 ± 8.8 | 66 % to control | 1.2e-06 | – |
| CC1(C)C=Cc2c(nc3ccccc3c2NCc2ccccc2)C1 [VIIk] | 20 % to control | – | – | – | 20 % to control | – | Increase of the number of correct trails (% to control). Passive avoidance test (rats) (rats): 25 % to control; FFA/TG in incubation medium (rat adipocytes [5]): 1.10; PL/CL in incubation medium (rat adipocytes [5]): 0.96; PL/TG in incubation medium (rat adipocytes [5]): 0.84; LD50 (mg/kg) by Kerber (in vivo): 90.5 ± 8. mg/kg; FFA/TG in adipocytes (rat adipocytes [6]): 0.93; PL/CL in adipocytes (rat adipocytes [6]): 0.61; PL/TG in adipocytes (rat adipocytes [6]): 0.58; FFAc/FFAm (rat adipocytes [6]): 0.95; PLc/PLm (rat adipocytes [6]): 0.78 |
| CC1(C)C=Cc2c(nc3ccccc3c2NCc2ccc(Cl)cc2)C1 [VIId] | 28 % to control | 20 % of mice | 60 | 126 ± 8.9 | 15 % to control | 6e-09 | Performance of normal rats in passive avoidance test (rats): statistically significantly improved performance of normal rats; Improving learning and memory compared with amiridine and piracetam (rats): as effective in improving learning and memory as amiridine and piracetam; FFA/TG in incubation medium (rat adipocytes [5]): 0.96; PL/CL in incubation medium (rat adipocytes [5]): 0.75; PL/TG in incubation medium (rat adipocytes [5]): 0.67; Change of lipid composition in adipocytes (rat adipocytes [6]): significaut lipolytic effect; also recorded: significant lipolytic effect; Lipid-regulative effect compared with probucol (rat adipocytes [6]): not inferior; Potency of effect on lipid composition of adipocytes (rat adipocytes [6]): most potent effect on lipid composition of adipocytes; FFA/TG in adipocytes (rat adipocytes [6]): 1.16; PL/CL in adipocytes (rat adipocytes [6]): 0.69; PL/TG in adipocytes (rat adipocytes [6]): 0.73; FFAc/FFAm (rat adipocytes [6]): 1.07; PLc/PLm (rat adipocytes [6]): 0.97 |
| Cc1ccc(C)c2c(N)c3c(nc12)CC(C)(C)CC3=O [IVf] | 0 % to control | – | 0 | 40 ± 1.2 | 0 % to control | 1.3e-05 | Performance of normal rats in passive avoidance test (rats): statistically significantly improved performance of normal rats |
| Cc1ccc(CNc2c3c(nc4ccccc24)CC(C)(C)CC3=O)c(C)c1 [Vd] | 90 % to control | 20 % of mice | 50 | > 1000 | 0 % to control | 1e-05 | Performance of normal rats in passive avoidance test (rats): statistically significantly improved performance of normal rats; Improving learning and memory compared with amiridine and piracetam (rats): as effective in improving learning and memory as amiridine and piracetam |
| CCCNc1c2c(nc3ccccc13)CC(C)(C)CC2=O [Vl] | 74 % to control | – | 0 | 283 ± 35.7 | 30 % to control | 3e-06 | – |
